# Test results published in US11311522B1 (Cavion, Inc., priority 2018, dated 2022).
# Like-named read-outs stand apart in the source and are kept apart here.
# Legend:
# [1] = T-CALM: plasma concentrations by 5-in-1 LC/MS/MS; assay type: in vivo, human; settings: for Plasma concentration, mean: trough
# Experimental: Additionally, at Visit 4, a post-dose sample will be collected as close to 4 hours post-dose as possible, but within the window of 4-6 hours post-dose (i.e., a total of two PK samples are collected at Visit 4.)
# Assay performances were satisfactory and met acceptance criteria for system performance suitability, quantitation range, calibration linearity, assay accuracy and precision, and assay recovery.
# [2] = Phase 1 single-dose pharmacokinetics (PN001, PN002/Part I, PN003, PN005); assay type: in vivo, human; settings: 8 mg CX-8998
# [3] = Single-dose toxicokinetic study in dogs; assay type: in vivo; settings: dog, plasma, po, 800 mg/kg
# [4] = In vitro plasma protein binding, rat; assay type: in vitro ADME
# Source text: CX-8998 distributes readily to the brain in rats and to brain and cerebral spinal fluid (CSF) in dogs.
# [5] = Brain penetration in male rats; assay type: in vivo; settings: rat, 25 mg/kg
# CYP2C9 = biological target: T1, CYP2C9 (Homo sapiens, UniProt P11712); experiment: In vitro metabolism (liver microsomes, hepatocytes, recombinant CYPs, anti-CYP antibodies); assay type: in vitro ADME; settings: recombinant CYP2C9
# T1 construct: host or cells: pooled liver microsomes, hepatocytes and recombinant CYP enzymes
# T1 sequence (P11712 whole entry): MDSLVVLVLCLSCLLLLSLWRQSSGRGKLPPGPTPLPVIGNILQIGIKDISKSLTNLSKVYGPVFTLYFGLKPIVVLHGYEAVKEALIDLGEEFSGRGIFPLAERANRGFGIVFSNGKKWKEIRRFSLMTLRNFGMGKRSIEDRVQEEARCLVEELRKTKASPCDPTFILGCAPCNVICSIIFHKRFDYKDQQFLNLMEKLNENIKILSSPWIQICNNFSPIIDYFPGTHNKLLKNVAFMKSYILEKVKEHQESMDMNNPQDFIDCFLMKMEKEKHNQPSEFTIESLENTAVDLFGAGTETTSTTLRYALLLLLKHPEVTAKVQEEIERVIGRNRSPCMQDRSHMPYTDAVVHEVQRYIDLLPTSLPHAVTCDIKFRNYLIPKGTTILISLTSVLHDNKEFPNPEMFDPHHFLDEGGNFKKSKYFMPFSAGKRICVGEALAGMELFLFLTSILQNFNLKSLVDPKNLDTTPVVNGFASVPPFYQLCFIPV
# Source text: (§1) Glucuronide conjugates of the oxygenated metabolites are detected in human, monkey, and dog hepatocyte preparations. […] However, the abundance of CYP3A5, CYP2C19, and CYP2D6 in human liver microsomes is low (2%-5%) relative to the primary contributors, CYP3A4 (˜30%) and CYP2C9 (˜20%). […] Information on reproductive and developmental toxicology was obtained in a 28-day pivotal female fertility study in rats and in preliminary embryo-fetal development studies in rats and rabbits.
# CYP2B6 = CYP2B6 mRNA induction in human hepatocytes; assay type: in vitro ADME
# Source text: as §1
# [6] = for Day 90 Free Margin for AUC24 at NOAEL for Dog 90-Day Toxicology / Day 90 Free Plasma AUC24 at NOAEL for Dog 90-Day Toxicology: Beagle; for Day 90 Free Plasma AUC24 at NOAEL for Dog 90-Day Toxicology: 30 mg/kg/day; for Day 90 Free Plasma AUC24 at NOAEL for Rat 90-Day Toxicology: 300 mg/kg/day
# in vivo [7] = settings: female, rat, po, 10 mg/kg/day
# in vivo [8] = settings: Beagle, dog, po, 300 mg/kg
# clinical = settings: human, plasma, oral, 8 mg
# Source text: Subjects will be screened for study eligibility within 28 days before administration of the first dose of study drug. Subjects who meet the study eligibility criteria will be admitted to the clinical research unit in the afternoon of the day before administration of the first dose of study drug (Period 1/Day −1).
# Treatments A, B, and C will be separated by a minimum 7-day washout period. […] Administration of Treatment D may be separated from administration of Treatments A, B, and C by approximately 4 weeks to allow for analysis of the bioanalytical samples from the first 3 treatments.
# [9] = Phase 1 multiple-dose pharmacokinetics (PN002/Part II); settings: for half-life / AUC / Cmax: human, plasma
# [10] = Crossover bioavailability study IR vs MR1 vs MR2 capsules: PK; set-up: AUC72hr: unit not given beside the values; settings: for AUC72hr Ratio / Cmax Ratio: metabolite to CX-8998; for AUC72hr / Cmax / Tmax: plasma
# [11] = M01, Day 7, CX-8998 2 mg once daily
# [12] = M01, Day 7, CX-8998 18 mg once daily
# [13] = single 8 mg dose of MR1 CX-8998
# [14] = single 8 mg dose of MR2 CX-8998
# [15] = following a single 8 mg dose of MR1 CX-8998
# [16] = following a single 8 mg dose of MR2 CX-8998
structure (smiles),measurement,setting,value
C=C(C)c1ccc(CC(=O)N[C@H](C)c2ccc(OCC(F)(F)F)cn2)cc1 [M01],"Plasma concentration, mean","[1]; Visit 2 (Day 8), 4 mg BID",398 nM
same,"Plasma concentration, mean","[1]; Visit 3 (Day 15), 8 mg BID",812 nM
same,"Plasma concentration, mean","[1]; Visit 4 (Day 28), 10 mg BID",1023 nM
same,concentration at 4 h,"[1]; human, plasma, oral, Visit 4 (Day 28), 10 mg BID, 4 hours post-dose",976 nM
same,"AUCinf, middle-aged and elderly female vs male subjects",[2],2% lower
same,"Cmax, middle-aged and elderly female vs male subjects",[2],12% lower
same,Tmax,[3]; female,8 h
same,Tmax,[3]; male,8 h
same,fraction unbound,"[4]; rat plasma, read-out: In vitro plasma protein binding (converted)",0.004
same,fraction unbound,"[4]; rats, read-out: free fraction",0.004
same,Kp at 2 h,"[5]; brain and plasma, oral, read-out: Brain-to-plasma ratio",0.27
same,Kp at 2 h,"[5]; brain, po, read-out: Brain: Plasma Ratio",0.27
same,KM for CYP2C9 reactions (formation),CYP2C9,~3 µM
same,CYP2B6 induction,CYP2B6,mild to moderate inducers
same,Day 90 Free Margin for AUC24 at NOAEL for Dog 90-Day Toxicology,[6]; female,>16
same,Day 90 Free Plasma AUC24 at NOAEL for Dog 90-Day Toxicology,[6]; female,<309 nM · hr
same,Day 90 Free Margin for AUC24 at NOAEL for Rat 90-Day Toxicology,[6]; female,>49
same,Day 90 Free Plasma AUC24 at NOAEL for Rat 90-Day Toxicology,[6]; female,<936 nM · hr
same,Day 90 Free Margin for AUC24 at NOAEL for Dog 90-Day Toxicology,[6]; male,>19
same,Day 90 Free Plasma AUC24 at NOAEL for Dog 90-Day Toxicology,[6]; male,<363 nM · hr
same,Day 90 Free Margin for AUC24 at NOAEL for Rat 90-Day Toxicology,[6]; male,>26
same,Day 90 Free Plasma AUC24 at NOAEL for Rat 90-Day Toxicology,[6]; male,<500 nM · hr
same,AUC,in vivo [7],8.11 µM·h
same,Cmax,in vivo [7],2660 nM
same,Kp at 24 h,"in vivo [8]; female, CSF",0.112
same,concentration at 24 h,"in vivo [8]; female, CSF",112 nM
same,Kp at 24 h,"in vivo [8]; female, brain (frontal cortex)",0.696
same,concentration at 24 h,"in vivo [8]; female, brain (frontal cortex)",696 nM
same,Kp at 24 h,"in vivo [8]; female, brain (thalamus)",0.772
same,concentration at 24 h,"in vivo [8]; female, brain (thalamus)",772 nM
same,Kp at 24 h,"in vivo [8]; male, CSF",0.149
same,concentration at 24 h,"in vivo [8]; male, CSF",149 nM
same,Kp at 24 h,"in vivo [8]; male, brain (frontal cortex)",0.19
same,concentration at 24 h,"in vivo [8]; male, brain (frontal cortex)",190 nM
same,Kp at 24 h,"in vivo [8]; male, brain (thalamus)",0.208
same,concentration at 24 h,"in vivo [8]; male, brain (thalamus)",208 nM
same,AUC(0-t),clinical,6.88 µM·h
same,Cmax,clinical,124 nM
same,Tmax,clinical,29 h
same,"AUC Ratio, metabolite to parent",[9]; [11],1.12
same,"Cmax Ratio, metabolite to parent",[9]; [11],0.36
same,"Cmax Ratio, metabolite to parent","[9]; M01, Day 7, CX-8998 4 mg once daily",0.36
same,"AUC Ratio, metabolite to parent","[9]; M01, Day 7, CX-8998 12 mg once daily",1.15
same,"AUC Ratio, metabolite to parent",[9]; [12],1.34
same,"Cmax Ratio, metabolite to parent",[9]; [12],0.57
same,Relative potency (CX-8998 = 1.00),"[9]; based on potency, free fraction, maximum Cmax ratios",0.27
same,half-life,[9]; 2 mg,25.8 h
same,AUC,"[9]; 2 mg, AUC24, M01, Day 7, CX-8998 2 mg once daily",1.52 µM·h
same,Cmax,"[9]; 2 mg, M01, Day 7, CX-8998 2 mg once daily",76 nM
same,AUC,"[9]; 4 mg, AUC24, M01, Day 7, CX-8998 4 mg once daily",2.83 µM·h
same,Cmax,"[9]; 4 mg, M01, Day 7, CX-8998 4 mg once daily",136 nM
same,half-life,[9]; 12 mg,22.6 h
same,half-life,[9]; 18 mg,19 h
same,AUC,"[9]; 18 mg, AUC24, M01, Day 7, CX-8998 18 mg once daily",18.3 µM·h
same,Cmax,"[9]; 18 mg, M01, Day 7, CX-8998 18 mg once daily",865 nM
same,half-life,"[9]; male, oral",19 to 25.8 h
same,AUC72hr Ratio,[10]; single 8 mg dose of IR CX-8998,0.92
same,Cmax Ratio,[10]; single 8 mg dose of IR CX-8998,0.14
same,AUC72hr Ratio,[10]; [13],0.95
same,Cmax Ratio,[10]; [13],0.27
same,AUC72hr Ratio,[10]; [14],0.90
same,Cmax Ratio,[10]; [14],0.35
same,AUC72hr,[10]; [15],7118
same,Cmax,[10]; [15],121 nM
same,Tmax,[10]; [15],26 h
same,AUC72hr,[10]; [16],6395
same,Cmax,[10]; [16],113 nM
same,Tmax,[10]; [16],39 h
